How the values were obtained:
[1] = test system: P-388 (suspension culture of a lymphoid neoplasm from DBA/2 mouse); experiment: Antitumour screening, growth inhibition of P-388 cells (adapted Bergeron method); type: cell-based; settings: P388, 72 h, three days of incubation at 37°C, approximate IC50, duplicate
Experimental: (§1) Cells were maintained in logarithmic phase of growth in Eagle's Minimum Essential Medium, with Earle's Balanced Salts, with 2.0 mM L-glutamine, with non-essential amino acids, without sodium bicarbonate (EMEM/neaa); supplemented with 10% Fetal Calf Serum (FCS), 10^-2 M sodium bicarbonate and 0.1 g/l penicillin-G + streptomycin sulfate.
(§2) A screening procedure has been carried out to determine and compare the antitumour activity of these compounds, using an adapted form of the method described by Bergeron et al (Raymond J Bergeron, Paul F Cavanaugh, Jr, Steven J Kline, Robert G Hughes, Jr, Gary T Elliot and Carl W Porter. Antineoplastic and antiherpetic activity of spermidine catecholamide iron chelators. Biochem. Bioph. Res. Comm. 1984, 121, 848-854). The antitumour cells employed were P-388 (suspension culture of a lymphoid neoplasm from DBA/2 mouse), A-549 (monolayer culture of a human lung carcinoma), HT-29 (monolayer culture of a human colon carcinoma) and MEL-28 (monolayer culture of a human melanoma).
P-388 cells were seeded into 16 mm wells at 1 x 10^4 cells per well in 1 ml aliquots of MEM SFCS containing the indicated concentration of drug. A separate set of cultures without drug was seeded as control growth to ensure that cells remained in exponential phase of growth. All determinations were carried out in duplicate. […]

[2] = test system: A-549 (monolayer culture of a human lung carcinoma); experiment: Antitumour screening, growth inhibition of A-549 cells (adapted Bergeron method, Crystal Violet staining); type: cell-based; settings: A549, 72 h, three days of incubation at 37°C, approximate IC50, duplicate
Experimental: as §1, §2
(§3) A-549, HT-29 and MEL-28 cells were seeded into 16 mm wells at 2 x 10^4 cells per well in 1 ml aliquots of MEM 10FCS containing the indicated concentration of drug. […] An approximately IC50 was determined by comparing the growth in wells with drug to the growth in wells control.

[3] = test system: HT-29 (monolayer culture of a human colon carcinoma); experiment: Antitumour screening, growth inhibition of HT-29 cells (adapted Bergeron method, Crystal Violet staining); type: cell-based; settings: 72 h, three days of incubation at 37°C, approximate IC50, duplicate
Experimental: as §1, §2, §3

[4] = test system: MEL-28 (monolayer culture of a human melanoma); experiment: Antitumour screening, growth inhibition of MEL-28 cells (adapted Bergeron method, Crystal Violet staining); type: cell-based; settings: SK-MEL-28, 72 h, three days of incubation at 37°C, approximate IC50, duplicate
Experimental: as §1, §2, §3

[5] = test system: Gram-positive bacteria (Staphylococcus and others); experiment: Activity against Gram-positive bacteria; type: cell-based
[6] = Stability in acid and basic media

## COC1=C(C)C(=O)C2=C(C1=O)C1C3CC4=C(C(=O)C(OC)=C(C)C4=O)C(COC(C)=O)N3C(O)C(C2)N1C (stereo not drawn) [Jorumycin]
[1]
  IC50: 20 nM
[2]
  IC50: 20 nM
[3]
  IC50: 20 nM
[4]
  IC50: 20 nM
[5]
  activity against Gram-positive bacteria: showed also activity
[6]
  stability: highly unstable

Source: patent EP1210346B1, “NEW ACTIVE MARINE ALKALOIDS” (Instituto Biomar S.A., priority 1999, dated 2001)
